Experimental data reported in the supplement of paper PMC11451515.

What was measured:
Conditions in all cases: 48 h
NOMO1 [1] = experiment: cell viability relative to DMSO control; higher = less cytotoxic
Summary of the method: (§1)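 Cells were incubated for 48 h at 37°C before CellTiter-Glo One luminescence was read. The cells were NOMO1 or SEM (500 cells/well) or P12-Ichikawa (1000 cells/well) leukemia cells, adapted for at least four passages in each medium and seeded in 1536-well plates (5 μl). Dosing used library compounds in DMSO applied by pin over 11 threefold points, 47 μM to 0.79 nM. Viability is the per-plate percentage of DMSO wells, with cell-free wells as background.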

P12-Ichikawa [2] = experiment: as above
Summary of the method: as §1

SEM cells [3] = experiment: as above
Summary of the method: as §1

NOMO1 [4] = experiment: AUC of viability dose-response curve (% viability x log10 dose units); higher = less sensitive
Summary of the method: (§2)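 Seeding of medium-adapted leukemia cells was at 500 or 1000 cells/well in 1536-well plates, followed by 48 h at 37°C with library compounds in DMSO at 11 threefold doses from 47 μM to 0.79 nM. CellTiter-Glo One luminescence was normalised per plate to DMSO and cell-free wells and fitted as a four-parameter log-logistic function of log10 dose. Area under the curve was integrated by trapezoidal rule, with curves exceeding full viability scaled and curves failing quality control removed.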

P12-Ichikawa [5] = experiment: as above
Summary of the method: as §2

SEM cells [6] = experiment: as above
Summary of the method: as §2

O=C(O)C(=O)c1cn(Cc2ccccc2)c2ccc(-c3ccc(OC(F)(F)F)cc3)cc12
cell viability [%]
Conditions	NOMO1 [1]	P12-Ichikawa [2]	SEM cells [3]
HPLM + 10% dialyzed FBS, 0.000781 µM	101	106	102
HPLM + 10% dialyzed FBS, 0.00234 µM	102	105	126
HPLM + 10% dialyzed FBS, 0.00702 µM	105	109	116
HPLM + 10% dialyzed FBS, 0.0211 µM	107	110	117
HPLM + 10% dialyzed FBS, 0.0632 µM	108	111	107
HPLM + 10% dialyzed FBS, 0.19 µM	108	109	108
HPLM + 10% dialyzed FBS, 0.569 µM	110	97.6	109
HPLM + 10% dialyzed FBS, 1.71 µM	81.4	103	110
HPLM + 10% dialyzed FBS, 5.12 µM	91.3	98.2	122
HPLM + 10% dialyzed FBS, 15.4 µM	90.6	95	46.2
HPLM + 10% dialyzed FBS, 46.1 µM	88.5	93.4	97.5
RPMI 5 mM glucose + 10% FBS, 0.000781 µM	93.5	99.9	119
RPMI 5 mM glucose + 10% FBS, 0.00234 µM	94.8	109	106
RPMI 5 mM glucose + 10% FBS, 0.00702 µM	90.3	102	104
RPMI 5 mM glucose + 10% FBS, 0.0211 µM	109	102	103
RPMI 5 mM glucose + 10% FBS, 0.0632 µM	96	100	98.7
RPMI 5 mM glucose + 10% FBS, 0.19 µM	100	99.9	102
RPMI 5 mM glucose + 10% FBS, 0.569 µM	104	109	95.2
RPMI 5 mM glucose + 10% FBS, 1.71 µM	89.6	103	108
RPMI 5 mM glucose + 10% FBS, 5.12 µM	97.8	102	97.3
RPMI 5 mM glucose + 10% FBS, 15.4 µM	96.1	98.4	45.1
RPMI 5 mM glucose + 10% FBS, 46.1 µM	89.5	87	88.1
RPMI 5 mM glucose + 10% dialyzed FBS, 0.000781 µM	106	95.9	110
RPMI 5 mM glucose + 10% dialyzed FBS, 0.00234 µM	96.8	103	94.6
RPMI 5 mM glucose + 10% dialyzed FBS, 0.00702 µM	104	98.7	102
RPMI 5 mM glucose + 10% dialyzed FBS, 0.0211 µM	119	101	99
RPMI 5 mM glucose + 10% dialyzed FBS, 0.0632 µM	97.8	101	98.6
RPMI 5 mM glucose + 10% dialyzed FBS, 0.19 µM	95.3	97.2	84.2
RPMI 5 mM glucose + 10% dialyzed FBS, 0.569 µM	100	94.4	116
RPMI 5 mM glucose + 10% dialyzed FBS, 1.71 µM	85.2	91.6	89.1
RPMI 5 mM glucose + 10% dialyzed FBS, 5.12 µM	93	102	101
RPMI 5 mM glucose + 10% dialyzed FBS, 15.4 µM	98.4	99.6	30.4
RPMI 5 mM glucose + 10% dialyzed FBS, 46.1 µM	80.8	90.2	84.2

AUC of viability dose-response curve
Conditions	NOMO1 [4]	P12-Ichikawa [5]	SEM cells [6]
HPLM + 10% dialyzed FBS	449	456	451
RPMI 5 mM glucose + 10% FBS	460	471	448
RPMI 5 mM glucose + 10% dialyzed FBS	443	466	444

COC(=O)C\1=C(C)\N\C(=C(/C1C2=CC=CC3=NON=C23)C(=O)OC(C)C)C (stereo unspecified)
cell viability [%]
Conditions	NOMO1 [1]	P12-Ichikawa [2]	SEM cells [3]
HPLM + 10% dialyzed FBS, 0.000781 µM	115	100	105
HPLM + 10% dialyzed FBS, 0.00234 µM	116	102	98.6
HPLM + 10% dialyzed FBS, 0.00702 µM	104	99.4	97.7
HPLM + 10% dialyzed FBS, 0.0211 µM	111	95	105
HPLM + 10% dialyzed FBS, 0.0632 µM	111	102	109
HPLM + 10% dialyzed FBS, 0.19 µM	108	93.8	100
HPLM + 10% dialyzed FBS, 0.569 µM	96.3	96.9	95
HPLM + 10% dialyzed FBS, 1.71 µM	89.8	96.1	83.6
HPLM + 10% dialyzed FBS, 5.12 µM	88.8	88	110
HPLM + 10% dialyzed FBS, 15.4 µM	96.3	90.2	90.4
HPLM + 10% dialyzed FBS, 46.1 µM	85.1	87.7	80.1
RPMI 5 mM glucose + 10% FBS, 0.000781 µM	95.4	96.1	87.2
RPMI 5 mM glucose + 10% FBS, 0.00234 µM	94.6	101	96.4
RPMI 5 mM glucose + 10% FBS, 0.00702 µM	91.3	100	107
RPMI 5 mM glucose + 10% FBS, 0.0211 µM	99.3	94.8	126
RPMI 5 mM glucose + 10% FBS, 0.0632 µM	103	104	101
RPMI 5 mM glucose + 10% FBS, 0.19 µM	89.4	98.8	100
RPMI 5 mM glucose + 10% FBS, 0.569 µM	94.5	93.1	98.2
RPMI 5 mM glucose + 10% FBS, 1.71 µM	85.2	94.2	95
RPMI 5 mM glucose + 10% FBS, 5.12 µM	81.4	87	85.5
RPMI 5 mM glucose + 10% FBS, 15.4 µM	86.6	86.9	88
RPMI 5 mM glucose + 10% FBS, 46.1 µM	94.7	87.4	78.6
RPMI 5 mM glucose + 10% dialyzed FBS, 0.000781 µM	105	97.6	98.9
RPMI 5 mM glucose + 10% dialyzed FBS, 0.00234 µM	101	94.6	96.9
RPMI 5 mM glucose + 10% dialyzed FBS, 0.00702 µM	100	88.5	104
RPMI 5 mM glucose + 10% dialyzed FBS, 0.0211 µM	108	95.2	110
RPMI 5 mM glucose + 10% dialyzed FBS, 0.0632 µM	88.7	101	111
RPMI 5 mM glucose + 10% dialyzed FBS, 0.19 µM	92.3	90.4	114
RPMI 5 mM glucose + 10% dialyzed FBS, 0.569 µM	87.8	88.7	114
RPMI 5 mM glucose + 10% dialyzed FBS, 1.71 µM	102	87.2	95.2
RPMI 5 mM glucose + 10% dialyzed FBS, 5.12 µM	92.8	93.4	87.2
RPMI 5 mM glucose + 10% dialyzed FBS, 15.4 µM	93.4	86.6	99.2
RPMI 5 mM glucose + 10% dialyzed FBS, 46.1 µM	106	86.1	70.8

AUC of viability dose-response curve
Conditions	NOMO1 [4]	P12-Ichikawa [5]	SEM cells [6]
HPLM + 10% dialyzed FBS	437	455	468
RPMI 5 mM glucose + 10% FBS	441	454	449
RPMI 5 mM glucose + 10% dialyzed FBS	464	438	457
